According to patent US6489307B1, “Antisense compositions targeted to β1-adrenoceptor-specific mRNA and methods of use” (University of Florida, priority 1998, dated 2002):
Several values for one entry are separate records, joined by “and”; a condition that tells them apart may be missing. Equal values may be shown once. Entries after “also recorded” stand apart in the source; their conditions may differ.

Assays:
SHRs [1] = experiment: Telemetric monitoring of conscious SHRs during dobutamine infusion; type: in vivo, rat (SHR)
Description: Two days after catherization of the jugular vein, control values were taken and 1 mg/kg β1-AS-ODN was injected. 48 hr later, rats were tested for the effect of β1-AS-ODN. The rats were allowed to recover until all the cardiovascular parameters returned to control values. […] For β1-stimulation, SHRs were infused with dobutamine (β1-selective agonist) through a jugular vein catheter at 5, 10, 20, and 40 μg·kg^−1·min.^−1. Each dose was given for 5 min. continuously and at 1-hr intervals until all the cardiovascular parameters returned to baseline values so as to avoid the effect of tachyphylaxis. BP and HR were sampled every 1 min. dP/dtmax was calculated from the slope of the rising pulse-pressure curve and determined every 1 min. The difference between values at each dose and baseline was denoted as Δ.
Two days after catheterization of jugular vein, control values were taken and 1 mg/kg β1-AS-ODN was injected. Forty-eight hr later, rats were tested for the effect of β1-AS-ODN. The rats were allowed to recover until all the cardiovascular parameters returned to control values. […] For β1-stimulation, SHR were infused with dobutamine (β1-selective agonist) through jugular vein catheter at 5, 10, 20, 40 μg/kg/min. Each dose was given for 5 min continuously and at 1-hr intervals until all cardiovascular parameters returned to baseline so as to avoid the effect of tachyphylaxis. BP and HR were sampled every min. dP/dtmax was calculated from the slope of the rising pulse pressure curve and determined every min. The difference between values at each dose and baseline was denoted as Δ.

SHRs [2] = type: in vivo, rat (SHR)
Description: (§1) Each rat cage was placed on a receiver (RLA 1020, Data Sciences, St. Paul, Minn.) for measurement of cardiovascular parameters. Data were collected with a computer-based data acquisition program (Dataquest Lab-PRO3.0; Data Sciences). BP and HR were measured every 10 min. and averaged every 1 to 24 hrs. Before treatment, SHRs were monitored for a week to get a stable baseline.
as §1, with “(RLA1020,” for “(RLA 1020,”, “Sciences)” for “Sciences, St. Paul, Minn.)”, “LabPRO3.0;” for “Lab-PRO3.0;”, “min” for “min.”, “hr.” for “hrs.”, “SHR” for “SHRs”

isolated rat heart = experiment: Isolated perfused heart model, myocardial ischemia-reperfusion; type: in vivo, Sprague-Dawley rats; settings: 2 mg/kg 6 hr before
Description: Male Sprague-Dawley rats weighing 200-250 g were injected intravenously with either AS-ODNs (n=7) or IN-ODNs (n=7) at a dose of 200 μg/rat 4 days before excising the hearts. DOTAP/DOPE liposomes (700 μg/rat) were given along with ODNs.
The hearts were excised rapidly and placed in ice-cold Kreb-Henseleit buffer (mmol/L: NaCl 118, KCl 4.7, KH2PO4 1.2, MgSO4 1.2, CaCl2 1.25, NaHCO3 25, and glucose 11, pH 7.4). Within one min, the hearts were transferred to an isolated perfusion apparatus and perfused via the aorta with oxygen-saturated (95% O2+5% CO2) Kreb-Henseleit buffer kept at 37° C. with the use of a MasterFlex pump (model 7015-21, Cole-Palmer Instrument Co.) according to the modified Langendroff procedure (Yang et al., 1998; Neely and Rovetto, 1975). The heart was placed in a semi-closed circulating water-warmed (37° C.) air chamber, paced atrially with a Medtronic 5320 pacemaker at a rate of 300 bpm, and perfused at a constant flow (5.5-6.0 ml/per min). Coronary perfusion pressure (CPP) was measured via a catheter placed just proximal to the aorta and connected to a Gould Statham P23ID pressure transducer. A latex balloon filled with water and connected to a Gould Statham P23ID pressure transducer was inserted in the left ventricle through the left atrium to measure left ventricular end-diastolic pressure (LVEDP), left ventricular systolic pressure (LVSP), and developed left ventricular pressure (dLVP) (dLVP=LVSP−LVEDP). LVEDP during equilibration was set at 5 to 7 mmHg. All measurements were continuously recorded on a 4-channel record (Astro-Med).
Six hearts from saline-treated rats were continuously perfused with Kreb-Henseleit buffer for 80 min and served as sham control. Hearts from other rats, after 20 min of equilibration, were subjected to 30 min of ischemia followed by 30 min of reperfusion. After completion of the study, hearts were frozen in liquid-nitrogen for β1-AR analysis by binding assay, β1-AR protein analyses by Western blot, β1-AR mRNA analysis by reverse transcription-polymerase chain reaction (RT-PCR™), and measurement of MDA.
The protective effects of β1-AS-ODNs were tested in a rat model of myocardial ischemia-reperfusion. Five groups of SD rats were studied. Sham controls (n=6) were injected with saline and perfused continuously for 80 min without ischemia/reperfusion (I/R). In other groups, hearts were perfused for 20 min and subjected to global ischemia (30 min) followed by reperfusion (30 min). […] AS-ODN+I/R (n=7) or INV-ODN+I/R (n=7) were injected iv. with 1 mg/kg β1-AS-ODN or INV-ODN 4 days before the I/R study was performed.

MDA (lipid peroxidation) = experiment: MDA levels in myocardium after ischemia-reperfusion; type: in vivo, Sprague-Dawley rats; settings: pretreatment before ischemia-reperfusion; vs saline
Description: Malondialdehyde (MDA) levels in myocardium were measured in duplicate by a modification of the method of Ohkawa et al., (1979). Briefly, the ventricular tissues were homogenized. The assay mixture consisted of 0.1 ml of the tissue homogenate, 0.4 ml of 0.9% NaCl, 0.5 ml of 3% sodium dodecylsulfate, 3 ml of TBA (thiobarbituric acid reagent, containing equal parts of 0.8% aqueous thiobarbituric acid and acetic acid) and was heated for 75 min at 95° C. Thereafter, 1 ml cold 0.9% NaCl was added to the mixture, which was cooled and extracted with 5 ml n-butanol. After centrifugation at 3,000 rpm for 15 min, the butanol phase was assayed spectrophotometrically at 532 nm. Tetramethoxypropane (in amounts of 0, 0.1, 0.2, 0.4, 0.8, 1.0 nmole) served as external standard. MDA levels in myocardium were expressed in μmol/g tissue.

β1-AR protein = experiment: Western blot of β1-AR protein in myocardium; type: in vivo, Sprague-Dawley rats; settings: Western analysis
Description: Myocardial tissues were homogenized and lysed in boiling lysis buffer (1% SDS, 0.1% Triton X-100®, and 10 mmol/L Tris-HCl, pH 7.4) and centrifuged at 10,000 RPM for 30 minutes at 4° C. The lysate protein from myocardial tissues (20 μg/lane) was separated by 8% SDS-PAGE using a Bio-Rad Mini-Protean cell, transferred to nitrocellulose membrane (Amersham). After incubation in blocking solution (4% non-fat milk, Sigma), membranes were incubated with 1:1000 dilation primary antibody (polycolonal antibody to β1-AR, Santa Cruz Biotechnology) for overnight at 4° C. Membranes were washed and incubated with 1:2000 dilution second antibody (Amersham) for one hr. The membranes were detected with the ECL system, as described previously (Yang et al, 1998; Li et al., 1999).

β1-AR mRNA = experiment: RT-PCR of β1-AR mRNA in myocardium; type: in vivo, Sprague-Dawley rats; settings: adjusted for GAPDH
Description: Total RNA was isolated from rat myocardium with the single step acid-guanidinum thiocyanate-phenol-chloroform method and quantified (Chomcznski and Sacchi, 1987). One μg of total RNA was reverse transcribed with oligo-dT (Promega) and M-MLV reverse transcriptase (Promega) at 37° C. for one hr. 1.5 μl of RT material was amplified with Taq DNA polymerase (Promega) using a primer pair specific to β1-AR:
PCR™ product was 432 base pairs. For PCR, 35 cycles were used at 95° C. for one minute, 60° C. for one minute, and 72° C. for one min. The RT-PCR™ amplified samples were visualized on 1.8% agarose gels using ethidium bromide. A primer pair of rat GAPDH was used as control:
For PCR™, 35 cycles were used at 95° C. for one min, 60° C. for one min, 72° C. for one min. PCR™ product was 504 base pairs. Relative intensity of bands of interest were analyzed by NSF-300G Scanner (Microtek) (Yang et al., 1998; Li et al., 1999).

CC(CCc1ccc(O)cc1)NCCc1ccc(O)c(O)c1 (stereo not shown) [Dobutamine, dobutamine]
effect on SBP (SHRs [1]; higher infusion speed): reduced SBP; also recorded: reduced SPB
elevation of SBP (SHRs [1]; low infusion speed): 5 to 8 mm Hg and 5-8 mm Hg

CC(C)NCC(O)COc1ccc(CC(N)=O)cc1 (stereo not shown) [atenolol, reference compound]
basal (resting) HR (SHRs [1]; 1 mg/kg, control 365±8): 295±12 bpm
time until inotropic and chronotropic effects of dobutamine returned to control levels (SHRs [1]; after 1 mg/kg administration): ≤ 24 h
duration of hypotensive effect (SHRs [2]; 1 mg/kg i.v.): 10 h
onset of hypotensive effect after injection (SHRs [2]; 1 mg/kg i.v.): 20 min
duration of action (SHRs [2]; comparison with β1-AS-ODN): less than 1 day
bradycardia (SHRs [2]; rat, in vivo): appreciable bradycardia
increase in CPP and LVEDP induced by ischemia-reperfusion (isolated rat heart): reduced the increase
ischemia-reperfusion-induced change in LVSP and dLVP (isolated rat heart): modestly attenuated
increase in MDA levels in the myocardium (MDA (lipid peroxidation)): attenuated the increase
ischemia-reperfusion-mediated increase in β1-AR protein expression (β1-AR protein): no effect
increase of mRNA for β1-AR in myocardium (β1-AR mRNA): not significantly affected
